Test results published in patent US7495104B2, “Quinoline or quinazoline derivatives inhibiting auto-phosphorylation of fibroblast growth factor receptors” (Kirin Beer Kabushiki Kaisha, priority 2001, dated 2009).
pIC50: −log10 of the molar value.

Biological target: Bek (Homo sapiens, UniProt P21802)
Assay: Inhibitory activity against Bek-autophosphorylation using ELISA method in OCUM-2MD3 cells
Assay type: cell-based
Conditions: 1 hr with compound, read-out: IC50 (concentration necessary for inhibiting 50% of Bek-phosphorylation)
Procedure, shortened: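 Sandwich ELISA (anti-phosphotyrosine capture, anti-Bek detection, peroxidase, 450 nm) measured Bek autophosphorylation in OCUM-2MD3 lysates after 1 hr compound treatment at 37° C in 0.1% serum medium. IC50 derived by scaling between no-drug (100%) and excess positive control at 1000 nM (0%).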

Sequence of Bek (P21802 431-767 limits assumed): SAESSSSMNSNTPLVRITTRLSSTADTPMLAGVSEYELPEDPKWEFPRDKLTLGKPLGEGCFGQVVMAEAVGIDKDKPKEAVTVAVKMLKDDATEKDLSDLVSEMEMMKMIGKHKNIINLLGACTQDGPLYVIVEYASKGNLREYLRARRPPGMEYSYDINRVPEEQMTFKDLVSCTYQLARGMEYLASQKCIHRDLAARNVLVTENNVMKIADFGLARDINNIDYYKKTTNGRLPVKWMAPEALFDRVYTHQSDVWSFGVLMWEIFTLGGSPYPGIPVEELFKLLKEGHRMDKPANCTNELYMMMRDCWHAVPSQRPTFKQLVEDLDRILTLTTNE

Compound | pIC50
COc1cc2c(Oc3ccc(NC(=O)NCCC(C)(C)C)cc3)ccnc2cc1OCCCl [Compound 152, 1-{4-[7-(2-Chloro-ethoxy)-6-methoxy-quinolin-4-yloxy]-phenyl}-3-(3,3-dimethyl-butyl)-urea] | 7.60
COc1cc2c(Oc3ccc(NC(=O)NCCC(C)(C)C)cc3Cl)ccnc2cc1OCCN1CC(C)OC(C)C1 (stereo not shown) [Compound 127, 1-(3-Chloro-4-{7-[2-(2,6-dimethyl-morpholin-4-yl)-ethoxy]-6-methoxy-quinolin-4-yloxy}-phenyl)-3-(3,3-dimethyl-butyl)-urea] | 8.03
COc1cc2c(Oc3ccc(NC(=O)NCCC(C)(C)C)c(Cl)c3)ccnc2cc1OCCCN1CCOCC1 [Compound 205, 1-{2-Chloro-4-[6-methoxy-7-(3-morpholin-4-yl-propoxy)-quinolin-4-yloxy]-phenyl}-3-(3,3-dimethyl-butyl)-urea] | 7.59
COc1cc2c(Oc3ccc(Nc4ccc(C(C)(C)C)cc4)cc3)ccnc2cc1OCc1csc(C)n1 [Compound 28, (4-Tert-butylphenyl)-{4-[6-methoxy-7-(2-methylthiazol-4-ylmethoxy)quinolin-4-yloxy]phenyl}amine] | 5.62
CCN(CC)CC(O)COc1cc2nccc(Oc3ccc(Nc4ccc(C(C)(C)C)cc4)cc3)c2cc1OC (stereo not shown) [Compound 60, 1-{4-[4-(4-Tert-butyl-phenylamino)phenoxy]-6-methoxyquinolin-7-yloxy}-3-diethylaminopropan-2-ol] | 6.69
CCN(CC)CCOc1cc2nccc(Oc3ccc(NC(=O)NCCC(C)(C)C)c(Cl)c3)c2cc1OC [Compound 167, 1-{2-Chloro-4-[7-(2-diethylamino-ethoxy)-6-methoxy-quinolin-4-yloxy]-phenyl}-3-(3,3-dimethyl-butyl)-urea] | 7.02
COc1cc2c(Oc3ccc(NC(=O)NCCC(C)(C)C)c(Cl)c3)ccnc2cc1OCCCCCl [Compound 162, 1-{2-Chloro-4-[7-(4-chloro-butoxy)-6-methoxy-quinolin-4-yloxy]-phenyl}-3-(3,3-dimethyl-butyl)-urea] | 6.60
COc1cc2c(Oc3ccc(NC(=O)NCCC(C)(C)C)c(Cl)c3)ccnc2cc1OCCCN(C)C [Compound 172, 1-{2-Chloro-4-[7-(3-dimethylamino-propoxy)-6-methoxy-quinolin-4-yloxy]-phenyl}-3-(3,3-dimethyl-butyl)-urea] | > 8.00
COc1cc2c(Oc3ccc(NC(=O)NCCC(C)(C)C)c(Cl)c3)ccnc2cc1OCC(O)CN(C)C (stereo not shown) [Compound 199, 1-{2-Chloro-4-[7-(3-dimethylamino-2-hydroxy-propoxy)-6-methoxy-quinolin-4-yloxy]-phenyl}-3-(3,3-dimethyl-butyl)-urea] | > 8.00
COc1cc2nccc(Oc3ccc(NC(=O)NCCC(C)(C)C)cc3)c2cc1OCCCCN(C)C [Compound 228, 1-{4-[6-(4-Dimethylamino-butoxy)-7-methoxy-quinolin-4-yloxy]-phenyl}-3-(3,3-dimethyl-butyl)-urea] | 7.41
COc1cc2nccc(Oc3ccc(NC(=O)NC4CC(C)CC(C)(C)C4)c(F)c3)c2cc1OC (stereo not shown) [Compound 106, 1-[4-(6,7-Dimethoxy-quinolin-4-yloxy)-2-fluoro-phenyl]-3-(3,3,5-trimethyl-cyclohexyl)-urea] | 7.71
COc1cc2c(Oc3ccc(NC(=O)NCCC(C)(C)C)c(Cl)c3)ccnc2cc1OCCCCN [Compound 175, 1-{4-[7-(4-Amino-butoxy)-6-methoxy-quinolin-4-yloxy]-2-chloro-phenyl}-3-(3,3-dimethyl-butyl)-urea] | 7.66
COc1cc2c(Oc3ccc(Nc4ccc(C(C)(C)C)cc4)cc3)ccnc2cc1OCCCN1C[C@@H](C)O[C@@H](C)C1 [Compound 69, (4-Tert-butylphenyl)-(4-{7-[3-(2,6-dimethylmorpholin-4-yl)propoxy]-6-methoxyquinolin-4-yloxy}phenyl)amine] | 6.61
COc1ccc(Nc2ccc(Oc3ccnc4cc(OC)c(OC)cc34)cc2)cc1OC [Compound 43, (3,4-Dimethoxyphenyl)-[4-(6,7-dimethoxyquinolin-4-yloxy)-phenyl]amine] | 5.48
COc1cc2c(Oc3ccc(NC(=O)NCCC(C)(C)C)c(Cl)c3)ccnc2cc1OCC(O)CN1CCCC1 (stereo not shown) [Compound 192, 1-{2-Chloro-4-[7-(2-hydroxy-3-pyrrolidin-1-yl-propoxy)-6-methoxy-quinolin-4-yloxy]-phenyl}-3-(3,3-dimethyl-butyl)-urea] | 8.04
COc1cc2nccc(Oc3ccc(NC(=O)NCCC(C)(C)C)cc3)c2cc1OC [Compound 101, 1-[4-(6,7-Dimethoxy-quinolin-4-yloxy)-phenyl]-3-(3,3-dimethyl-butyl)-urea] | > 8.00
COc1cc2c(Oc3ccc(Nc4ccc(C(C)(C)C)cc4)cc3)ccnc2cc1OCC(O)CN1CCCN(C)CC1 (stereo not shown) [Compound 65, 1-{4-[4-(4-Tert-butylphenylamino)phenoxy]-6-methoxyquinolin-7-yloxy}-3-(4-methyl-[1,4]diazepin-1-yl)propan-2-ol] | 6.73

Compound | pIC50
COc1cc2c(Oc3ccc(Nc4ccc(C(C)(C)C)cc4)c(Cl)c3)ccnc2cc1OCCN1CCC(CCO)CC1 [Compound 293, 2-[1-(2-{4-[4-(4-Tert-butyl-phenylamino)-3-chloro-phenoxy]-6-methoxy-quinolin-7-yloxy}-ethyl)-piperidin-4-yl]-ethanol] | 5.63
COc1cc2c(Oc3ccc(NC(=O)NCCC(C)(C)C)cc3Cl)ccnc2cc1OCCN1CCC(O)CC1 [Compound 311, 1-(3-Chloro-4-{7-[2-(4-hydroxy-piperidin-1-yl)-ethoxy]-6-methoxy-quinolin-4-yloxy}-phenyl)-3-(3,3-dimethyl-butyl)-urea] | 7.64
COc1cc2nccc(Oc3ccc(Nc4ccc(C(C)(C)C)cc4)cc3)c2cc1OCCN1CCOCC1 [Compound 212, (4-Tert-butyl-phenyl)-{4-[7-methoxy-6-(2-morpholin-4-yl-ethoxy)-quinolin-4-yloxy]-phenyl}-amine] | 6.86
COc1cc2c(Oc3ccc(Nc4ccc(C(C)(C)C)cc4)c(F)c3)ccnc2cc1OCCN1CCC(O)CC1 [Compound 287, 1-(2-{4-[4-(4-Tert-butyl-phenylamino)-3-fluoro-phenoxy]-6-methoxy-quinolin-7-yloxy}-ethyl)-piperidin-4-ol] | 6.59
COc1cc2c(Oc3ccc(Nc4ccc(C(C)(C)C)cc4)cc3)ccnc2cc1OCCNC(C)CO (stereo not shown) [Compound 353, 2-(2-{4-[4-(4-Tert-butyl-phenylamino)-phenoxy]-6-methoxy-quinolin-7-yloxy}-ethylamino)-propan-1-ol] | 6.43
COc1cc2c(Oc3ccc(NC(=O)NCCC(C)(C)C)c(Cl)c3)ccnc2cc1OCC(O)CN1CCCCC1 (stereo not shown) [Compound 193, 1-{2-Chloro-4-[7-(2-hydroxy-3-piperidin-1-yl-propoxy)-6-methoxy-quinolin-4-yloxy]-phenyl}-3-(3,3-dimethyl-butyl)-urea] | 7.76
COc1cc2c(Oc3ccc(Nc4ccc(C(C)(C)C)cc4)cc3F)ccnc2cc1OCCCN1CCC(CO)CC1 [Compound 270, [1-(3-{4-[4-(4-Tert-butyl-phenylamino)-2-fluoro-phenoxy]-6-methoxy-quinolin-7-yloxy}-propyl)-piperidin-4-yl]-methanol] | 6.52
COc1cc2c(Oc3ccc(NC(=O)NCCC(C)(C)C)cc3F)ccnc2cc1OCCN1C(C)CCCC1C (stereo not shown) [Compound 132, 1-(3,3-Dimethyl-butyl)-3-(4-{7-[2-(2,6-dimethyl-piperidin-1-yl)-ethoxy]-6-methoxy-quinolin-4-yloxy}-3-fluoro-phenyl)-urea] | 6.83
CCCCc1ccc(Nc2ccc(Oc3ccnc4cc(OC)c(OC)cc34)cc2)cc1 [Compound 8, (4-Butylphenyl)-[4-(6,7-dimethoxyquinolin-4-yloxy)phenyl]amine] | 5.82
COc1cc2c(Oc3ccc(NC(=O)NCCC(C)(C)C)c(Cl)c3)ccnc2cc1OCCCCl [Compound 161, 1-{2-Chloro-4-[7-(3-chloro-propoxy)-6-methoxy-quinolin-4-yloxy]-phenyl}-3-(3,3-dimethyl-butyl)-urea] | 6.72
COc1cc2c(Oc3ccc(NC(=O)NCCC(C)(C)C)cc3)ccnc2cc1OCCCN1CC(C)CC(C)C1 (stereo not shown) [Compound 245, 1-(3,3-Dimethyl-butyl)-3-(4-{7-[3-(3,5-dimethyl-piperidin-1-yl)-propoxy]-6-methoxy-quinolin-4-yloxy}-phenyl)-urea] | 7.78
COc1cc2c(Oc3ccc(Nc4ccc(C(C)(C)C)cc4)c(F)c3)ccnc2cc1OCCN1CCC(CCO)CC1 [Compound 305, 2-[1-(2-{4-[4-(4-Tert-butyl-phenylamino)-3-fluoro-phenoxy]-6-methoxy-quinolin-7-yloxy}-ethyl)-piperidin-4-yl]-ethanol] | 6.44
COc1cc2c(Oc3ccc(NC(=O)NCCC(C)(C)C)c(Cl)c3)ccnc2cc1OCCN1CC(C)OC(C)C1 (stereo not shown) [Compound 125, 1-(2-Chloro-4-{7-[2-(2,6-dimethyl-morpholin-4-yl)-ethoxy]-6-methoxy-quinolin-4-yloxy}-phenyl)-3-(3,3-dimethyl-butyl)-urea] | 7.89
COc1cc2c(Oc3ccc(NC(=O)NCCC(C)(C)C)cc3)ccnc2cc1OCC(=O)O [Compound 221, (4-{4-[3-(3,3-Dimethyl-butyl)-ureido]-phenoxy}-6-methoxy-quinolin-7-yloxy)-acetic acid] | 6.12
COc1cc2nccc(Oc3ccc(Nc4ccc(C5CCCCC5)cc4)cc3)c2cc1OC [Compound 10, (4-Cyclohexylphenyl)-[4-(6,7-dimethoxyquinolin-4-yloxy)phenyl]-amine] | 6.20
CCN(CCO)CCOc1cc2nccc(Oc3ccc(NC(=O)NCCC(C)(C)C)c(Cl)c3)c2cc1OC [Compound 342, 1-[2-Chloro-4-(7-{2-[ethyl-(2-hydroxy-ethyl)-amino]-ethoxy}-6-methoxy-quinolin-4-yloxy)-phenyl]-3-(3,3-dimethyl-butyl)-urea] | 7.94
COc1cc2c(Oc3ccc(NC(=O)NCCC(C)(C)C)cc3)ccnc2cc1OCC(O)CN1CC(C)OC(C)C1 (stereo not shown) [Compound 250, 1-(3,3-Dimethyl-butyl)-3-(4-{7-[3-(2,6-dimethyl-morpholin-4-yl)-2-hydroxy-propoxy]-6-methoxy-quinolin-4-yloxy}-phenyl)-urea] | > 8.00
